We go through 15 compounds from patent publication US9511073B2, “Aromatic amides and uses thereof” (TAXIS Pharmaceuticals, Inc., priority 2011, dated 2016).

Values after ≈ are worked out from the molar mass of the structure shown.

The assay has as its system Staphylococcus aureus (Isolate ID ATCC 29213). Put plainly: Bacterial assay: MIC by broth microdilution or agar dilution (CLSI), S. aureus ATCC 29213. Type of assay: cell-based. The note with it: Staphylococcus aureus, ATCC29213, read-out: S. aureus MIC (μg/mL) Activity Range, S. aureus (ATCC29213). On the procedure: Compounds are tested for antimicrobial activity by susceptibility testing in liquid or on solid media. Minimum inhibitory concentrations (MICs) for compounds against each strain are determined by the broth microdilution or agar dilution method according to the guidelines of the Clinical Laboratories and Standards Institute, formerly the National Committee for Clinical Laboratory Standards (Clinical Laboratories and Standards Institute. Methods for Dilution Antimicrobial Susceptibility Tests for Bacteria That Grow Aerobically; Approved Standard—Seventh Edition. Document M7-A7. CLSI, Wayne, Pa., 2006; Clinical Laboratories and Standards Institute). The bacterial strains tested include S. aureus (Staphylococcus aureus (Isolate ID ATCC 29213)) and an FtsZ mutant of this isolate (FtsZ-G196A Staphylococcus aureus (Isolate ID GG/190723/sa/1.2)). Compound MICs were determined to be in the following activity ranges “A” activity≦0.25 μg/mL; “B” activity>0.25 μg/mL-1.0 μg/mL; “C” activity>1.0 μg/mL-16 μg/mL; “D” activity>16 μg/mL and ND=not determined. The bracketed entries indicate entantiomer(s) and their activity.
Background: In broth dilution the organism is exposed to a series of concentrations in liquid medium.
With `NC(=O)c1c(F)ccc(OC(C(N)=O)c2nc(-c3ccc(Cl)cc3)cs2)c1F` (stereo not drawn) [Compound 40, 3-(2-amino-1-(4-(4-chlorophenyl)thiazol-2-yl)-2-oxoethoxy)-2,6-difluorobenzamide], the MIC fell in the range of 1 to 16 µg/mL (≈ 2.36 to 37.8 µM).

Take `CN1CCN(C(=O)C(Oc2ccc(F)c(C(N)=O)c2F)c2nc(-c3ccc(Cl)cc3)cs2)CC1` (stereo not drawn) [Compound 41, 3-(1-(4-(4-chlorophenyl)thiazol-2-yl)-2-(4-methylpiperazin-1-yl)-2-oxoethoxy)-2,6-difluorobenzamide]: the MIC was in the range of 1 to 16 µg/mL (≈ 1.97 to 31.6 µM).

`CC(=O)OCC(Oc1ccc(F)c(C(N)=O)c1F)c1nc(-c2ccc(C(F)(F)F)cc2)c(Cl)o1` (stereo not drawn) [Compound 42, 2-(3-carbamoyl-2,4-difluorophenoxy)-2-(5-chloro-4-(4-(trifluoromethyl)phenyl)oxazol-2-yl)ethyl acetate]: the MIC was 0.25 to 1 µg/mL.

In the case of `CC(Oc1ccc(F)c(C(N)=O)c1F)c1nc(-c2ccc(C(F)(F)F)cn2)c(Cl)o1` (stereo not drawn) [Compound 43], the MIC lay within 1 to 16 µg/mL (≈ 2.23 to 35.7 µM).

Turning to `NC(=O)c1c(F)ccc(OC(CO)c2nc(-c3ccc(C(F)(F)F)cc3)c(Cl)o2)c1F` (stereo not drawn) [Compound 44, 3-(1-(5-chloro-4-(4-(trifluoromethyl)phenyl)oxazol-2-yl)-2-hydroxyethoxy)-2,6-difluorobenzamide], the MIC was in the range of 0.25 to 1 µg/mL (≈ 0.54 to 2.16 µM).

In the case of `CS(=O)(=O)OCC(Oc1ccc(F)c(C(N)=O)c1F)c1nc(-c2ccc(C(F)(F)F)cc2)c(Cl)o1` (stereo not drawn) [Compound 45, 2-(3-carbamoyl-2,4-difluorophenoxy)-2-(5-chloro-4-(4-(trifluoromethyl)phenyl)oxazol-2-yl)ethyl methanesulfonate], the MIC lay within 1 to 16 µg/mL.

For `CC(=O)OCC(Oc1ccc(F)c(C(N)=O)c1F)c1nc(-c2ccc(Cl)cc2)c(Cl)o1` (stereo not drawn) [Compound 46, 2-(3-carbamoyl-2,4-difluorophenoxy)-2-(5-chloro-4-(4-chlorophenyl)oxazol-2-yl)ethyl acetate], the MIC was 0.25 to 1 µg/mL.

Turning to `NC(=O)c1c(F)ccc(OC(CO)c2nc(-c3ccc(Cl)cc3)c(Cl)o2)c1F` (stereo not drawn) [Compound 47, 3-(1-(5-chloro-4-(4-chlorophenyl)oxazol-2-yl)-2-hydroxyethoxy)-2,6-difluorobenzamide], the MIC lay in the range of 0.25 to 1 µg/mL (≈ 0.582 to 2.33 µM).

As for `CS(=O)(=O)OCC(Oc1ccc(F)c(C(N)=O)c1F)c1nc(-c2ccc(Cl)cc2)c(Cl)o1` (stereo not drawn) [Compound 48, 2-(3-carbamoyl-2,4-difluorophenoxy)-2-(5-chloro-4-(4-chlorophenyl)oxazol-2-yl)ethyl methanesulfonate], the MIC fell in the range of 1 to 16 µg/mL.

As for `CNC(=O)C(Oc1ccc(F)c(C(N)=O)c1F)c1nc(-c2ccc(Cl)cc2)c(Cl)o1` (stereo not drawn) [Compound 49, 3-(1-(5-chloro-4-(4-chlorophenyl)oxazol-2-yl)-2-(methylamino)-2-oxoethoxy)-2,6-difluorobenzamide], the MIC is 1 to 16 µg/mL (≈ 2.19 to 35.1 µM).

Regarding `CC(Oc1ccc(F)c(C(N)=O)c1F)c1nc(-c2ccc(C(F)(F)F)nc2)c(Cl)o1` (stereo not drawn) [Compound 50], the MIC lay within 1 to 16 µg/mL (≈ 2.23 to 35.7 µM).

On to `CNC(=O)C(Oc1ccc(F)c(C(N)=O)c1F)c1nc(-c2ccc(C(F)(F)F)cc2)c(Cl)o1` (stereo not drawn) [Compound 51, 3-(1-(5-chloro-4-(4-(trifluoromethyl)phenyl)oxazol-2-yl)-2-(methylamino)-2-oxoethoxy)-2,6-difluorobenzamide], for which the MIC fell in the range of 1 to 16 µg/mL (≈ 2.04 to 32.7 µM).

In the case of `NC(=O)OCC(Oc1ccc(F)c(C(N)=O)c1F)c1nc(-c2ccc(C(F)(F)F)cc2)c(Cl)o1` (stereo not drawn) [Compound 52, 2-(3-carbamoyl-2,4-difluorophenoxy)-2-(5-chloro-4-(4-(trifluoromethyl)phenyl)oxazol-2-yl)ethyl carbamate], the MIC is 0.25 to 1 µg/mL (≈ 0.494 to 1.98 µM).

Turning to `NC(=O)c1c(F)ccc(OC(C(=O)O)c2nc(-c3ccc(Cl)cc3)c(Cl)o2)c1F` (stereo not drawn) [Compound 53, 2-(3-carbamoyl-2,4-difluorophenoxy)-2-(5-chloro-4-(4-chlorophenyl)oxazol-2-yl)acetic acid], the MIC is more than 16 µg/mL.

For the compound `CC(Oc1ccc(F)c(C(N)=O)c1F)c1nc(-c2ccc(C(F)(F)F)cn2)c(Br)o1` (stereo not drawn) [Compound 54], the MIC was 0.25 to 1 µg/mL (≈ 0.508 to 2.03 µM).
